Reference: ChEMBL document CHEMBL5252673, “Development of thiazole-appended novel hydrazones as a new class of α-amylase inhibitors with anticancer assets: an in silico and in vitro approach” (RSC Med Chem, 2023)

Columns and labels:
Alpha amylase [1] = target: T1, Alpha amylase (Homo sapiens, UniProt P0DUB6); assay: Inhibition of alpha-amylase (unknown origin) using starch as substrate preincubated with substrate for 15 mins followed by compound addition and measured after 15 mins by UV-VIS spectrophotometric analysis
T1 sequence (P0DUB6 whole entry): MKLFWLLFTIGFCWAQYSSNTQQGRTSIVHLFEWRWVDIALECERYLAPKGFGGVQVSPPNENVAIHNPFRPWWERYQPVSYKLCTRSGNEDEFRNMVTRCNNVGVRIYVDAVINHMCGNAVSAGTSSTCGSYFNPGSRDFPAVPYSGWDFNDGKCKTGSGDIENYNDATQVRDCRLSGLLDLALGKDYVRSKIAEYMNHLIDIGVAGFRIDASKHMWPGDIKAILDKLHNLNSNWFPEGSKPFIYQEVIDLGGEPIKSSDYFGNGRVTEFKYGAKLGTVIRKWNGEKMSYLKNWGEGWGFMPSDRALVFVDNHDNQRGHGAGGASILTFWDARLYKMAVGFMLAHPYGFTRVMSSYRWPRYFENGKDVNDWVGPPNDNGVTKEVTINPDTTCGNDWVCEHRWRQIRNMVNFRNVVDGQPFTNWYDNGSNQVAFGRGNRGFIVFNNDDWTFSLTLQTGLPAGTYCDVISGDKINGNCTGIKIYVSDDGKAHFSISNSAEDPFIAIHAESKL

A549 [2] = assay: Antiproliferative activity against human A549 cells assessed as inhibition of cell growth incubated for 48 hrs by MTT assay; format: functional, cell-based; settings: A549, 48 h
HCT-116 = assay: Antiproliferative activity against human HCT-116 cells assessed as inhibition of cell growth incubated for 48 hrs by MTT assay; format: functional, cell-based; settings: HCT-116, 48 h
MDA-MB-231 = assay: Antiproliferative activity against human MDA-MB-231 cells assessed as inhibition of cell growth incubated for 48 hrs by MTT assay; format: functional, cell-based; settings: MDA-MB-231, 48 h
A549 [3] = assay: Induction of ROS in human A549 cells at sub IC50 concentration incubated for 24 hrs by H2DCFDA dye based fluorescence assay (reference value: 33.28%); format: functional
MCF-10A = assay: Cytotoxicity against human MCF-10A assessed as reduction in cell viability upto 10 uM incubated for 48 hrs by MTT assay; format: toxicity, cell-based
Alpha amylase [4] = target: T1, Alpha amylase; assay: Inhibition of alpha-amylase (unknown origin) using starch as substrate incubated for 30 mins by microplate reader analysis
Alpha amylase [5] = target: T1, Alpha amylase; assay: Inhibition of alpha-amylase (unknown origin)
Alpha amylase [6] = target: T1, Alpha amylase; assay: Inhibition of alpha-amylase (unknown origin) using p-nitrophenylR-D-maltoside as substrate incubated for 30 mins by […]
[7] = test system: COc1cc(/C=N/NC(=O)c2csc(Nc3ccc([N+](=O)[O-])cc3)n2)cc(OC)c1OC; assay: (§1) Uncompetitive inhibition of alpha-amylase (unknown origin) using starch as substrate assessed as decrease in Km incubated for 30 mins by UV-visible spectrophotometric analysis; settings: Homo sapiens
[8] = test system: COc1cc(/C=N/NC(=O)c2csc(Nc3ccc([N+](=O)[O-])cc3)n2)ccc1O; assay: as §1; settings: Homo sapiens
[9] = test system: O=C(N/N=C/c1ccc(Cl)cc1)c1csc(Nc2ccc([N+](=O)[O-])cc2)n1; assay: as §1; settings: Homo sapiens
[10] = test system: O=C(N/N=C/c1ccc(O)cc1)c1csc(Nc2ccc([N+](=O)[O-])cc2)n1; assay: as §1; settings: Homo sapiens
[11] = test system: COc1cc(/C=N/NC(=O)c2csc(Nc3ccc([N+](=O)[O-])cc3)n2)cc(OC)c1OC; assay: (§2) Uncompetitive inhibition of alpha-amylase (unknown origin) using starch as substrate assessed as decrease in Vmax incubated for 30 mins by UV-visible spectrophotometric analysis; settings: Homo sapiens
[12] = test system: COc1cc(/C=N/NC(=O)c2csc(Nc3ccc([N+](=O)[O-])cc3)n2)ccc1O; assay: as §2; settings: Homo sapiens
[13] = test system: O=C(N/N=C/c1ccc(Cl)cc1)c1csc(Nc2ccc([N+](=O)[O-])cc2)n1; assay: as §2; settings: Homo sapiens
[14] = test system: O=C(N/N=C/c1ccc(O)cc1)c1csc(Nc2ccc([N+](=O)[O-])cc2)n1; assay: as §2; settings: Homo sapiens

| Molecule | IC50 (Alpha amylase [1]) [µM] | IC50 (A549 [2]) [µM] | IC50 (HCT-116) [µM] | IC50 (MDA-MB-231) [µM] | other results |
| --- | --- | --- | --- | --- | --- |
| O=C(N/N=C/c1ccccc1)c1csc(Nc2ccc([N+](=O)[O-])cc2)n1 | 0.37 | 11.2 | 7.32 | 23.2 | – |
| O=C(N/N=C/c1ccc(O)c(O)c1)c1csc(Nc2ccccc2)n1 | 0.45 | 9.86 | 12.2 | 14.9 | – |
| O=C(N/N=C/c1ccc(O)c(O)c1)c1csc(Nc2ccc(Cl)cc2)n1 | 0.39 | 5.09 | 5.43 | 5.6 | – |
| COc1ccc(Nc2nc(C(=O)N/N=C/c3ccc(O)cc3)cs2)cc1 | 0.5 | 7.99 | 6.96 | 9.87 | – |
| COc1cc(/C=N/NC(=O)c2csc(Nc3ccc([N+](=O)[O-])cc3)n2)ccc1O | 0.24 | 1.99 | 2.43 | 4.98 | Activity (A549 [3]): 27.19%; Activity (MCF-10A): Non-Toxic |
| O=C(N/N=C/c1ccc(F)cc1)c1csc(Nc2ccc([N+](=O)[O-])cc2)n1 | 0.34 | 5.43 | 7.66 | 8.33 | – |
| O=C(N/N=C/c1ccc(O)cc1)c1csc(Nc2ccc(Cl)cc2)n1 | 0.41 | 7.43 | 5.67 | 15.7 | – |
| O=C(N/N=C/c1ccc(Cl)cc1)c1csc(Nc2ccc(Cl)cc2)n1 | 0.39 | 14 | 17.2 | > 25 | – |
| Cc1cccc(-c2nc3scc(-c4cccc([N+](=O)[O-])c4)n3n2)c1 | – | – | – | – | IC50 (Alpha amylase [4]): 1.1 µM |
| COc1ccc(/C=N/NC(=O)c2csc(Nc3ccc(OC)cc3)n2)cc1 | 0.47 | 7.88 | 7.83 | 6.89 | – |
| O=C(N/N=C/c1ccc(Cl)cc1)c1csc(Nc2ccc([N+](=O)[O-])cc2)n1 | 0.29 | 2.63 | 2.96 | 6.77 | Activity (A549 [3]): 28.62%; Activity (MCF-10A): Non-Toxic |
| COc1cc(/C=N/NC(=O)c2csc(Nc3ccc([N+](=O)[O-])cc3)n2)cc(OC)c1OC | 0.26 | 1.62 | 1.03 | 2.67 | Activity (A549 [3]): 22.34%; Activity (MCF-10A): Non-Toxic |
| NNC(=O)c1csc(N/N=C/c2cccc(Br)c2)n1 | – | – | – | – | IC50 (Alpha amylase [5]): 31 µg/mL |
| O=[N+]([O-])c1ccc(/C(CSc2nnc3c(n2)[nH]c2ccccc23)=N\Nc2nc(-c3ccc([N+](=O)[O-])cc3)co2)cc1 | – | – | – | – | IC50 (Alpha amylase [6]): 1.2 µM |
| C/C(=N\NC(=O)c1csc(Nc2ccc(Cl)cc2)n1)c1ccccn1 | 0.35 | 20.2 | 13.2 | 13.2 | – |
| COc1cc(/C=N/NC(=O)c2csc(Nc3ccccc3)n2)ccc1O | 0.41 | 12 | 10.1 | 14.5 | – |
| O=C(N/N=C/c1ccccc1)c1csc(Nc2ccccc2)n1 | 0.48 | 5.98 | 6.43 | > 25 | – |
| Cc1ccc(-c2csc(N/N=C(/CSc3nnc4c(n3)[nH]c3ccccc34)c3ccc([N+](=O)[O-])cc3)n2)cc1 | – | – | – | – | IC50 (Alpha amylase [6]): 1.2 µM |
| COc1ccc(Nc2nc(C(=O)N/N=C/c3ccc(Cl)cc3)cs2)cc1 | 0.41 | 10.3 | 12.2 | 9.32 | – |
| COc1ccc(Nc2nc(C(=O)N/N=C/c3ccccc3)cs2)cc1 | 0.49 | 6.32 | 4.32 | > 25 | – |

| Molecule | IC50 (Alpha amylase [1]) [µM] | IC50 (A549 [2]) [µM] | IC50 (HCT-116) [µM] | IC50 (MDA-MB-231) [µM] | other results |
| --- | --- | --- | --- | --- | --- |
| CC(=O)c1sc(N/N=C(/C)c2ccc(Cl)cc2)nc1C | – | – | – | – | IC50 (Alpha amylase [5]): 4.79 µM |
| COc1ccc(Nc2nc(C(=O)N/N=C/c3cccc(N)c3)cs2)cc1 | 0.46 | 10 | 14.9 | > 25 | – |
| COc1cc2c(c(OC)c1OC)-c1ccc(OC)c(=O)cc1[C@@H](NC(C)=O)CC2 [COLCHICINE] | – | 1.09 | 1.85 | 1.98 | – |
| Alpha amylase (Homo sapiens) (from UniProt P0DUB6) | – | – | – | – | Km [7]: 1190 µM; Km [8]: 1030 µM; Km [9]: 804 µM; Km [10]: 830 µM; Vmax [11]: 3.24 µmol/min; Vmax [12]: 1.81 µmol/min; Vmax [13]: 1.56 µmol/min; Vmax [14]: 0.916 µmol/min |
| Cc1ccc([C@H]2C3CSCN3[C@@]3(C(=O)Nc4ccccc43)[C@]23N=C(c2ccccc2)OC3=O)cc1 (some centres undefined) | – | – | – | – | IC50 (Alpha amylase [5]): 1.76 µM |
| COc1ccc(/C=N/NC(=O)c2csc(Nc3ccc(O)cc3)n2)cc1OC | 0.39 | 4.98 | 5.99 | 5.56 | – |
| COc1ccc(/C=N/NC(=O)c2csc(Nc3ccc(Cl)cc3)n2)cc1 | 0.4 | 11.3 | 13.2 | 16.1 | – |
| Cc1c(C(=O)N/N=C/c2ccc(O)c(O)c2)oc2ccccc12 | – | – | – | – | IC50 (Alpha amylase [5]): 1.24 µM |
| O=C(N/N=C/c1ccccc1)c1csc(Nc2ccc(Cl)cc2)n1 | 0.38 | 6.49 | 7.62 | 3.89 | – |
| O=C(N/N=C/c1cccc(F)c1)c1csc(Nc2ccccc2)n1 | 0.43 | 8.42 | 9.48 | 7.77 | – |
| COc1ccc(Nc2nc(C(=O)N/N=C/c3ccc(OC)c(OC)c3)cs2)cc1 | 0.43 | 2.97 | 2.31 | 3.22 | – |
| COc1ccc(/C=N/NC(=O)c2csc(Nc3ccc([N+](=O)[O-])cc3)n2)cc1 | 0.32 | 8.97 | 4.65 | 14 | – |
| COc1cc(/C=N/NC(=O)c2csc(Nc3ccc(Cl)cc3)n2)ccc1O | 0.32 | 2.16 | 2.88 | 6.55 | – |
| C#Cc1cccc(Nc2ncnc3cc(OCCOC)c(OCCOC)cc23)c1 [ERLOTINIB] | – | 1.23 | 1.11 | 2.54 | – |
| O=C1CS/C(=N\N=C\c2ccc(OS(=O)(=O)c3ccccc3[N+](=O)[O-])cc2)N1 | – | – | – | – | IC50 (Alpha amylase [5]): 42.8 µM |
| COc1ccc(Nc2nc(C(=O)N/N=C/c3ccc(O)c(OC)c3)cs2)cc1 | 0.43 | 3.98 | 4.99 | 4.95 | – |
| Fc1cccc(-c2nc3scc(-c4ccc(Br)cc4)n3n2)c1 | – | – | – | – | IC50 (Alpha amylase [4]): 3.2 µM |
| O=C(N/N=C/c1ccc(O)cc1)c1csc(Nc2ccccc2)n1 | 0.45 | 11.3 | 4.44 | 8.33 | – |
| COc1cc(-c2nc3ccccc3[nH]2)ccc1OCC(=O)Nc1ccccc1C | – | – | – | – | IC50 (Alpha amylase [5]): 11 µM |
